Test results: patent US5137811A, “Method for diagnosing periodontal diseases with a substrate specific for aminopeptidase activity of periodontopathic bacteria” (Sunstar Kabushiki Kaisha, priority 1986, dated 1992)
Where a SMILES comes first, the peptide text is derived from it. The star is where a group is joined. βNA = c1ccc2cc(N*)ccc2c1; Cbz = O=C(OCc1ccccc1)*

Columns and labels:
[1] = system: Fusobacterium nucleatum; experiment: Hydrolytic activity of oral anaerobe cell suspension on aminopeptidase substrates (Experiment 1); format: cell-based; conditions: three strains, substrate 0.2 mM, pH 7.0, 37° C., 60 minutes, Table 1
Procedure, shortened: (§1)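 Treponema grown anaerobically in TYGVS (37 °C, 7 days) and other strains in brain heart infusion (37 °C, 48–72 h), then diluted to A660 1.0. Cells reacted 60 min at 37 °C with β-naphthylamine-derived substrates (0.2 mM solution, 0.1 M Tris-HCl pH 7.0). Garnet GBC coupling, A525 after 15 min; activity graded from mean released β-naphthylamine per strain.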

[2] = system: Bacteroides gingivalis; experiment: as above; format: cell-based; conditions: five strains, substrate 0.2 mM, pH 7.0, 37° C., 60 minutes, Table 1
Procedure, shortened: as §1

[3] = system: Actinobacillus actinomycetemcomitans; experiment: as above; format: cell-based; conditions: four strains, substrate 0.2 mM, pH 7.0, 37° C., 60 minutes, Table 1
Procedure, shortened: as §1

[4] = system: Capnocytophaga sp.; experiment: as above; format: cell-based; conditions: four strains, substrate 0.2 mM, pH 7.0, 37° C., 60 minutes, Table 1
Procedure, shortened: as §1

[5] = system: Treponema denticola; experiment: as above; format: cell-based; conditions: four strains, substrate 0.2 mM, pH 7.0, 37° C., 60 minutes, Table 1
Procedure, shortened: as §1

[6] = system: periodontopathic bacteria specific aminopeptidase activity; experiment: Hydrolytic activity of gingival crevicular fluid specimens, OD525 (Experiment 6); format: biochemical
Experimental: (§2) Substrate compounds for aminopeptidase enzyme having various color developing groups derived from β-naphthylamine were dissolved in 0.1M Tris-HCl buffer (pH 7.0) at the concentration of 0.2 mM to obtain substrate solutions.
(§3) To the substrate solution (1.5 ml) was added the above cell suspension (0.3 ml) and reacted at 37° C. for 60 minutes. After completion of the reaction, a coloring reagent [prepared by dissolving diazonium salt of Garnet GBC in 1M acetate buffer (containing 10% Tween 20, pH: 4.2) at the concentration of 0.5 mg/ml] was added and, after 15 minutes, the absorption at 525 nm was determined with a spectrophotometer.
(§4) Specimens of gingival crevicular fluid were collected with paper points from five subjects who were considered to be healthy from their clinical state, six subjects with gingivitis and six subjects with periodontitis. Each specimen was dispersed in Ringer's solution (1.5 ml), and the relative amount of spirochete to total bacteria: [formula] was determined with a phase contrast microscope. Further, the Ringer's solution (0.3 ml) was tested for hydrolytic activity using the substrate solution prepared in the same manner as described in Experiment 1. As substrates, there were used compounds of the formula [1], i.e., N-benzoylvalyl-glycyl-arginine-β-naphthylamide (BzVGR) and N-carbobenzoxy-valyl-glycyl-arginine-β-naphthylamide (CxVGR) were used.
According to the same manner as described in Experiment 4, hydrolytic activity was tested by using the compounds of the formulas and [2], i.e., glycyl-proline-βnaphthylamide (GP), N-benzoyl-arginyl-glycyl-phenylalanylproline-β-naphthylamide (BzRGFP), N-carbobenzoxy-valylglycyl-arginine-β-naphthylamide (CxVGR) and N-benzoylglycyl-arginine-β-naphthylamide (BzGR) alone or in combination. Hydrolytic activity was determined by measuring absorption at 525 nm (OD525) and expressed as follows.

[7] = system: periodontopathic bacteria specific aminopeptidase activity; experiment: Hydrolytic activity of saliva supernatant (Experiment 7); format: biochemical; conditions: 37° C. for 4 hours, Table 7
Experimental: as §4
(§5) A saliva mixture was collected from a group consisting of ten healthy subjects and centrifuged to obtain a supernatant. Likewise, centrifuged supernatants were obtained from a group of ten subjects with adult periodontitis and a group of four localized juvenile periodontitis. The supernatant was used as a specimen and its hydrolytic activity was determined according to the same manner as described in Experiment 4 except that the reaction was carried out at 37° C. for 4 hours. As the substrates, there were used N-carbobenzoxy-valyl-glycyl-arginine-p-nitrophenol (CxVGR-pNP), N-carbobenzoxy-valyl-glycylarginine-4-methoxy-2-naphthylamide (CxVGR-4NA) and N-carbobenzoxy-valyl-glycyl-arginine-β-naphthylamide (CxVGR-βNA). Color was developed by using lN sodium hydroxide for CxVGR-pNP and Fast Blue BB for CxVGR-4NA and CxVGR-βNA.

[8] = system: periodontopathic bacteria specific aminopeptidase activity; experiment: Hydrolytic activity of saliva supernatant, substrates alone or in combination (Experiment 9); format: biochemical; conditions: 37° C. for 4 hours, Table 9
Experimental: as §5
According to the same manner as described in Experiment 7, hydrolytic activity was tested by using N-carbobenzoxy-valyl-glycyl-arginine-β-naphthylamide (CxVGR-βNA), N-benzoyl-arginyl-glycyl-phenylalanyl-proline-β-naphthylamide (BzRGFP-βNA), N-carbobenzoxy-valyl-glycylarginine-p-nitrophenol (CxVGR-pNP) and N-benzoyl-arginylglycyl-phenylalanyl-proline-p-nitrophenol (BzRGFP-pNP) alone or in combination as the substrates.

[9] = system: periodontopathic bacteria specific aminopeptidase activity; experiment: Hydrolytic activity of gingival crevicular fluid specimens, visually evaluated (Experiment 4); format: biochemical; design: key: -: orange; +: dark orange; ++: brown; +++: dark brown
Experimental: as §2, §3, §4
In table 4, hydrolytic activity was visually evaluated and expressed as follows: […]

[10] = system: Fusobacterium nucleatum; experiment: Hydrolytic activity of cell suspension, substrates alone or in combination (Experiment 3); format: cell-based; conditions: three strains, Table 3
Procedure, shortened: (§6)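 Cell suspensions (A660 = 1.0) were grown at 37 °C: Treponema anaerobically in TYGVS for 7 days, others in BHI broth for 48–72 h. They were reacted 60 min at 37 °C with 0.2 mM β-naphthylamide aminopeptidase substrate solutions (0.1 M Tris-HCl, pH 7.0), then Garnet GBC was added and A525 read after 15 min. Mean released β-naphthylamine per species was graded: +++ 40–<80, ++++ ≥80 nmol/ml.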

[11] = system: B. gingivalis; experiment: as above; format: cell-based; conditions: five strains, Table 3
Procedure, shortened: as §6

[12] = system: Actinomyces israelli; experiment: as above; format: cell-based; conditions: two strains, Table 3
Procedure, shortened: as §6

[13] = system: Actinobacillus actinomycetemcomitans; experiment: as above; format: cell-based; conditions: four strains, Table 3
Procedure, shortened: as §6

[14] = system: Treponema denticola; experiment: as above; format: cell-based; conditions: four strains, Table 3
Procedure, shortened: as §6

[15] = Gingivitis subject 1 (spirochete 7.3 %)
[16] = Gingivitis subject 2 (spirochete 16.7 %)
[17] = Gingivitis subject 3 (spirochete 20.5 %)
[18] = Gingivitis subject 4 (spirochete 6.8 %)
[19] = Gingivitis subject 5 (spirochete 7.3 %)
[20] = Gingivitis subject 6 (spirochete 14.4 %)
[21] = Healthy subject 1 (spirochete 0.1 %)
[22] = Healthy subject 2 (spirochete 2.5 %)
[23] = Healthy subject 3 (spirochete 1.1 %)
[24] = Healthy subject 4 (spirochete 0.6 %)
[25] = Healthy subject 5 (spirochete 1.3 %)
[26] = Periodontitis subject 1 (spirochete 45.2 %)
[27] = Periodontitis subject 2 (spirochete 30.3 %)
[28] = Periodontitis subject 3 (spirochete 34.6 %)
[29] = Periodontitis subject 4 (spirochete 21.2 %)
[30] = Periodontitis subject 5 (spirochete 40.3 %)
[31] = Periodontitis subject 6 (spirochete 35.1 %)
[32] = Localized juvenile periodontitis subjects

## CC(C)[C@H](NC(=O)OCc1ccccc1)C(=O)NCC(=O)N[C@@H](CCCNC(=N)N)C(=O)Nc1ccc2ccccc2c1 [CxVGR, N-carbobenzoxy-valyl-glycyl-arginine-β-naphthylamide] (Cbz-Val-Gly-Arg-βNA)
[1]
  hydrolytic activity (average amount of released β-naphthylamine): - (release amount<5 nmol/ml)
[2]
  hydrolytic activity (average amount of released β-naphthylamine): +++ (release amount≥40 nmol/ml)
[3]
  hydrolytic activity (average amount of released β-naphthylamine): - (release amount<5 nmol/ml)
[4]
  hydrolytic activity (average amount of released β-naphthylamine): - (release amount<5 nmol/ml)
[5]
  hydrolytic activity (average amount of released β-naphthylamine): +++ (release amount≥40 nmol/ml)
[6]; [15]
  hydrolytic activity, absorption at 525 nm (OD525): + (0.1≤OD525 <0.2)
[6]; [16]
  hydrolytic activity, absorption at 525 nm (OD525): + (0.1≤OD525 <0.2)
[6]; [17]
  hydrolytic activity, absorption at 525 nm (OD525): ++ (0.2≤OD525 <0.4)
[6]; [18]
  hydrolytic activity, absorption at 525 nm (OD525): - (OD525 <0.1)
[6]; [19]
  hydrolytic activity, absorption at 525 nm (OD525): - (OD525 <0.1)
[6]; [20]
  hydrolytic activity, absorption at 525 nm (OD525): + (0.1≤OD525 <0.2)
[6]; [21]
  hydrolytic activity, absorption at 525 nm (OD525): - (OD525 <0.1)
[6]; [22]
  hydrolytic activity, absorption at 525 nm (OD525): + (0.1≤OD525 <0.2)
[6]; [23]
  hydrolytic activity, absorption at 525 nm (OD525): - (OD525 <0.1)
[6]; [24]
  hydrolytic activity, absorption at 525 nm (OD525): - (OD525 <0.1)
[6]; [25]
  hydrolytic activity, absorption at 525 nm (OD525): - (OD525 <0.1)
[6]; [26]
  hydrolytic activity, absorption at 525 nm (OD525): +++ (0.4≤OD525 <0.8)
[6]; [27]
  hydrolytic activity, absorption at 525 nm (OD525): +++ (0.4≤OD525 <0.8)
[6]; [28]
  hydrolytic activity, absorption at 525 nm (OD525): +++ (0.4≤OD525 <0.8)
[6]; [29]
  hydrolytic activity, absorption at 525 nm (OD525): +++ (0.4≤OD525 <0.8)
[6]; [30]
  hydrolytic activity, absorption at 525 nm (OD525): +++ (0.4≤OD525 <0.8)
[6]; [31]
  hydrolytic activity, absorption at 525 nm (OD525): +++ (0.4≤OD525 <0.8)
[7]; Adult Periodontitis subjects
  hydrolytic activity: 35.6 ± 9.8 nmol/mL
[7]; Healthy subjects
  hydrolytic activity: 16.1 ± 10.3 nmol/mL
[7]; [32]
  hydrolytic activity: 33.4 ± 10.0 nmol/mL
[8]; Adult Periodontitis subjects
  hydrolytic activity: 34.8 ± 10.2 nmol/mL
[8]; Healthy subjects
  hydrolytic activity: 15.0 ± 8.8 nmol/mL
[8]; [32]
  hydrolytic activity: 31.5 ± 9.8 nmol/mL
[9]; [15]
  hydrolytic activity, visually evaluated: +
[9]; [16]
  hydrolytic activity, visually evaluated: +
[9]; [17]
  hydrolytic activity, visually evaluated: ++
[9]; [18]
  hydrolytic activity, visually evaluated: -
[9]; [19]
  hydrolytic activity, visually evaluated: -
[9]; [20]
  hydrolytic activity, visually evaluated: +
[9]; [21]
  hydrolytic activity, visually evaluated: -
[9]; [22]
  hydrolytic activity, visually evaluated: +
[9]; [23]
  hydrolytic activity, visually evaluated: -
[9]; [24]
  hydrolytic activity, visually evaluated: -
[9]; [25]
  hydrolytic activity, visually evaluated: -
[9]; [26]
  hydrolytic activity, visually evaluated: +++
[9]; [27]
  hydrolytic activity, visually evaluated: +++
[9]; [28]
  hydrolytic activity, visually evaluated: +++
[9]; [29]
  hydrolytic activity, visually evaluated: +++
[9]; [30]
  hydrolytic activity, visually evaluated: +++
[9]; [31]
  hydrolytic activity, visually evaluated: +++
[10]
  hydrolytic activity (release amount): - (release amount<5 nmol/ml)
[11]
  hydrolytic activity (release amount): +++ (40≤release amount<80 nmol/ml)
[12]
  hydrolytic activity (release amount): - (release amount<5 nmol/ml)
[13]
  hydrolytic activity (release amount): - (release amount<5 nmol/ml)
[14]
  hydrolytic activity (release amount): +++ (40≤release amount<80 nmol/ml)
